The values below come from ChEMBL document CHEMBL1201862, “PubChem BioAssay data set” (2004).

SMILES strings stand for the structures.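 1) Cells in 96-well plates. 2) Compound, 48 h, 5 concentrations. 3) Linear interpolation between surrounding doses. 4) Unreached endpoint = highest concentration. Here, GI50 denotes the concentration required for 50% inhibition of growth.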 The source made the active and inactive calls. Rule as the data show it: active = GI50 up to about 1.1 µM and inactive = higher.

Among the test systems are HOP-92; OVCAR-3; DU-145; NCI/ADR-RES; Hs-578T; SK-OV-3; HCT-15; K562; SF-268; KM12; SNB-75; SK-MEL-5; RPMI-8226; SNB-19; SW-620; CAKI-1; IGROV-1; OVCAR-5; LOX IMVI; NCI-H522.
Holding throughout (test): DTP human tumour cell line panel, 48 h

A word on the GI50: it is the concentration giving 50% growth inhibition. Regarding `COc1ccc2[nH]c(C(O)(Cc3cccnc3)Cc3cccnc3)cc2c1`, the GI50 in the test with HOP-92, with OVCAR-3, in the test with DU-145, in the test on NCI/ADR-RES, in the test with Hs-578T and with SK-OV-3 was > 100 µM (inactive) each time. The 50% growth inhibitory concentration (GI50) in the test on HCT-15 was over 100 µM; with K562 it was > 100 µM (inactive); with SF-268, > 100 µM (inactive); in the test on KM12, > 100 µM (inactive); with SNB-75, > 100 µM (inactive); in the test with SK-MEL-5, > 100 µM (inactive). The GI50 in the test with RPMI-8226, with SNB-19, with SW-620, in the test on CAKI-1, with IGROV-1 and with OVCAR-5 was > 100 µM (inactive) each time.
For the compound `COc1ccc2o/c(=N/c3ccccc3)c(C(N)=O)cc2c1`, the GI50 in the test with HOP-92 was > 50.9 µM (inactive); in the test on OVCAR-3, > 100 µM (inactive); in the test with DU-145, > 100 µM (inactive); in the test with LOX IMVI it was > 100 µM (inactive); with NCI/ADR-RES, > 69.8 µM (inactive); in the test on Hs-578T it was 42.9 µM (inactive). In addition, the GI50 in the test with SK-OV-3 was 39.2 µM (inactive); in the test with HCT-15, over 100 µM; in the test with K562 it was > 100 µM (inactive); in the test with SF-268, 47.3 µM (inactive); in the test on NCI-H522, > 54.8 µM (inactive); in the test with KM12 it was > 100 µM (inactive). In addition, the GI50 was 53.7 µM (inactive) with SNB-75; > 100 µM (inactive) with SK-MEL-5; > 100 µM (inactive) in the test on RPMI-8226; > 100 µM (inactive) in the test with SW-620; > 71.3 µM (inactive) with CAKI-1; > 70.6 µM (inactive) with IGROV-1. Further, in the test on OVCAR-5, the GI50 is > 100 µM (inactive).
With `Oc1c(Cl)cc2cc1-c1cc(cc(Cl)c1O)CCc1c(cc(Cl)c(O)c1Cl)-c1cc(Cl)c(c(Cl)c1O)/C=C\2`, the GI50 in the test with HOP-92 is 16.8 µM (inactive); in the test with OVCAR-3 it was 7.4 µM (inactive); with DU-145, 9.18 µM (inactive); in the test on LOX IMVI, 9.44 µM (inactive); in the test with NCI/ADR-RES, 13.7 µM (inactive); with Hs-578T, 11.1 µM (inactive). Further, the GI50 in the test on SK-OV-3 was 9.16 µM (inactive); with HCT-15, 7.96 µM; in the test with K562 it was > 50 µM (inactive); in the test on SF-268 it was 8.43 µM (inactive); with KM12, 7.76 µM (inactive); with SNB-75 it was 9.02 µM (inactive). Also, the GI50 is 8.17 µM (inactive) with SK-MEL-5; 22.1 µM (inactive) with RPMI-8226; 11.6 µM (inactive) in the test with SNB-19; 9.44 µM (inactive) with SW-620; 8.99 µM (inactive) in the test with IGROV-1; 10.8 µM (inactive) in the test with OVCAR-5.
Turning to `CCNC(=S)N/N=C/c1cc(OC)ccc1O`, the GI50 in the test on HOP-92 is 45.1 µM (inactive); in the test on OVCAR-3 it was 6.38 µM (inactive); with DU-145 it was > 100 µM (inactive); in the test on LOX IMVI it was 99.3 µM (inactive); with NCI/ADR-RES, 83.6 µM (inactive); in the test with Hs-578T it was > 100 µM (inactive). Also, the GI50 is > 100 µM (inactive) with SK-OV-3; 47.6 µM in the test on HCT-15; 97.9 µM (inactive) with K562; 8.43 µM (inactive) in the test on SF-268; 65.8 µM (inactive) in the test on NCI-H522; 88.1 µM (inactive) with KM12. In addition, the GI50 is > 100 µM (inactive) in the test on SNB-75; > 100 µM (inactive) in the test on SK-MEL-5; > 100 µM (inactive) in the test with SNB-19; > 100 µM (inactive) in the test on SW-620; 82.4 µM (inactive) in the test with IGROV-1; > 100 µM (inactive) in the test on OVCAR-5.
For `COc1ccccc1NC(=S)N/N=C(/C)c1ccccn1`, the GI50 in the test on HOP-92 is 6.93 µM (inactive); with OVCAR-3 it was < 0.01 µM (active); in the test on DU-145, 1.28 µM (inactive); in the test with LOX IMVI, < 0.01 µM (active); with NCI/ADR-RES, < 0.01 µM (active); with Hs-578T it was > 37.5 µM (inactive). Moreover, the GI50 with SK-OV-3 is < 0.0213 µM (active); in the test on HCT-15 it was under 0.0318 µM; in the test on K562 it was < 0.01 µM (active); in the test with SF-268, < 0.0124 µM (active); in the test with KM12, 0.117 µM (active); with SNB-75, 1.45 µM (inactive). For the same compound, the GI50 with SK-MEL-5 was < 0.041 µM (active); in the test on RPMI-8226, < 0.01 µM (active); in the test on SNB-19 it was 6.19 µM (inactive); with SW-620 it was < 0.01 µM (active); with CAKI-1 it was 0.0132 µM (active); in the test on IGROV-1 it was < 0.01 µM (active).
For `CC1(C)C(=O)C2(OS(=O)(=O)C(F)(F)F)CCC1C2` (stereo not drawn), the GI50 with HOP-92, with OVCAR-3, in the test on DU-145, with LOX IMVI, in the test with NCI/ADR-RES and in the test on Hs-578T was > 100 µM (inactive) in each case. Besides, the GI50 with SK-OV-3 is > 100 µM (inactive); with HCT-15, over 100 µM; in the test on K562, > 100 µM (inactive); in the test on SF-268, > 100 µM (inactive); with KM12 it was > 100 µM (inactive); in the test with SNB-75, > 100 µM (inactive). In addition, the GI50 in the test with SK-MEL-5, in the test on RPMI-8226, in the test on SNB-19, with SW-620, in the test on CAKI-1 and with IGROV-1 was > 100 µM (inactive) in each case. The GI50 with OVCAR-5 was > 100 µM (inactive).
For `CC(C)c1cc(Cl)nc(Cl)n1`, the GI50 in the test with OVCAR-3, in the test with DU-145, with LOX IMVI, in the test on NCI/ADR-RES, with Hs-578T and with SK-OV-3 was > 100 µM (inactive) in each case. For the same compound, the GI50 is over 100 µM in the test on HCT-15; > 100 µM (inactive) in the test with K562; > 100 µM (inactive) in the test on SF-268; > 100 µM (inactive) in the test with NCI-H522; > 100 µM (inactive) with KM12; > 100 µM (inactive) in the test with SNB-75. The GI50 in the test on SK-MEL-5, with RPMI-8226, in the test with SNB-19, in the test with SW-620, in the test with CAKI-1 and in the test on IGROV-1 was > 100 µM (inactive) throughout. Besides, the GI50 with OVCAR-5 is > 100 µM (inactive).
For the compound `CCOC(=O)c1nc2cc(C(F)(F)F)ccc2nc1Oc1ccc(C#N)cc1`, the GI50 in the test with HOP-92 was > 100 µM (inactive); in the test with OVCAR-3 it was > 100 µM (inactive); in the test on DU-145 it was > 100 µM (inactive); in the test on LOX IMVI it was 71.8 µM (inactive); with NCI/ADR-RES, > 100 µM (inactive); in the test on Hs-578T it was > 100 µM (inactive). In addition, the GI50 in the test with HCT-15 was over 100 µM; with K562, 70.6 µM (inactive); in the test on SF-268, > 100 µM (inactive); in the test with NCI-H522, > 100 µM (inactive); in the test with KM12 it was > 100 µM (inactive); with SNB-75, > 100 µM (inactive). Besides, the GI50 with SK-MEL-5 was 92.5 µM (inactive); in the test with RPMI-8226, 54.3 µM (inactive); in the test with SNB-19, > 100 µM (inactive); with SW-620 it was > 100 µM (inactive); with CAKI-1 it was > 100 µM (inactive); in the test with IGROV-1 it was > 100 µM (inactive). The GI50 in the test with OVCAR-5 was > 100 µM (inactive).
For the compound `COc1cc(-c2coc3c(OC)c(OC4OC(COC5OC(C)C(O)C(O)C5O)C(O)C(O)C4O)c(OC)c(O)c3c2=O)cc(C)c1O` (stereo not drawn), the GI50 with HOP-92 was 19.2 µM (inactive); in the test with OVCAR-3, 13.7 µM (inactive); in the test on DU-145 it was 19.6 µM (inactive); with LOX IMVI, 16.5 µM (inactive); with NCI/ADR-RES, 17.9 µM (inactive); in the test with Hs-578T, 20.7 µM (inactive). Further, the GI50 in the test on SK-OV-3 was 16.8 µM (inactive); with HCT-15, 16.4 µM; with K562 it was 13.4 µM (inactive); with SF-268, 19.4 µM (inactive); in the test with NCI-H522, 12.7 µM (inactive); in the test on KM12 it was 11.7 µM (inactive). Also, the GI50 in the test with SNB-75 was 16 µM (inactive); in the test with SK-MEL-5 it was 12.6 µM (inactive); in the test with SNB-19 it was 13.8 µM (inactive); with SW-620, 12.7 µM (inactive); in the test on CAKI-1, 18 µM (inactive); in the test on IGROV-1, 17 µM (inactive). Further, in the test on OVCAR-5, the GI50 is 21.7 µM (inactive).
For the compound `O=C(O)c1cc(NCc2cc(O)ccc2O)ccc1O` [LAVENDUSTIN C], the GI50 in the test with HOP-92, in the test with OVCAR-3, in the test with DU-145, in the test with NCI/ADR-RES, in the test on Hs-578T and in the test on SK-OV-3 was > 100 µM (inactive) in each case. The concentration for 50% growth inhibition (GI50) with HCT-15 was over 100 µM; in the test with SF-268, > 100 µM (inactive); in the test with NCI-H522, 16.2 µM (inactive); in the test with KM12 it was > 100 µM (inactive); with SNB-75, > 100 µM (inactive); with SK-MEL-5, > 100 µM (inactive). Also, the GI50 with SNB-19 was > 100 µM (inactive); in the test with SW-620, 23.8 µM (inactive); in the test with CAKI-1 it was > 100 µM (inactive); in the test with IGROV-1 it was > 100 µM (inactive); with OVCAR-5, > 100 µM (inactive).
In the case of `O=c1c(O)c(-c2cc(O)c(O)c(O)c2)oc2cc(O)cc(O)c12` [MYRICETIN], the GI50 was 46.7 µM (inactive) in the test with HOP-92; 30.6 µM (inactive) in the test with OVCAR-3; > 100 µM (inactive) with DU-145; 13.6 µM (inactive) in the test with LOX IMVI; 22.4 µM (inactive) in the test with NCI/ADR-RES; 40.9 µM (inactive) in the test with Hs-578T. The GI50 was > 100 µM (inactive) with SK-OV-3; 24.8 µM with HCT-15; 35.6 µM (inactive) in the test on K562; 44.2 µM (inactive) in the test with SF-268; 68.1 µM (inactive) in the test with NCI-H522; 17.7 µM (inactive) with KM12. For the same compound, the GI50 with SNB-75 was 64.4 µM (inactive); in the test on SK-MEL-5, 31.5 µM (inactive); in the test on RPMI-8226, 36.1 µM (inactive); in the test on SW-620 it was 19.5 µM (inactive); in the test on CAKI-1, 23.6 µM (inactive); in the test on IGROV-1, 33.9 µM (inactive). Further, the GI50 with OVCAR-5 was 84.1 µM (inactive).
